# Paper PMC2011259, “Pentamethylmelamine (PMM): Phase I clinical and pharmacokinetic studies” (British Journal of Cancer, 1983)
# Read-outs that look alike come from different tables or passages of the source.
# Columns and labels:
# [1] = system: experimental tumour test systems; design: method as in earlier work; details: a number of experimental tumour test systems, ref Cumber & Ross, 1977, Connors et al., Goldin et al., 1981; cited from earlier work
# [2] = system: malignant tumours; assay: Tumour response in the Phase I trial; assay type: in vivo, man
# Text: Br. J. Cancer (1983), 47, 027-033 Pentamethylmelamine (PMM): Phase I clinical and pharmacokinetic studies J.R.F. Muindi*, D.R. Newellt, I.E. Smith* & K.R. Harrapt *Division of Medicine, Institute of Cancer Research and Royal Marsden Hospital, and the tDepartment of Biochemical Pharmacology, Institute of Cancer Research, Sutton, Surrey. […] PMM has been administered as an intravenous infusion to 17 patients in a Phase I clinical trial. […] In the present study the results of the Phase I clinical evaluation of PMM at the Royal Marsden Hospital are reported. In addition to the clinical assessment of patients, pharmacokinetic studies were also performed. […] (Broggini et al., 1981; Morimoto et al., 1980; Ames et al., 1979; Casper et al., 1981; Idhe et al., 1981; Benvenuto et al., 1981; Rutty et al., 1982). […] The mechanism of action of N-methylolmelamines is, however, still uncertain. To ascertain the rate and extent of PMM metabolism in man, plasma levels of the parent drug and the first two products of oxidative N- demethylation i.e. N2,N2,N4,N6-tetramethyl- melamine (TMM) and N2,N4,N6-trimethylmelamine (TRIMM) were measured (Figure 2). […] Materials and methods Patient selection The patients entered in the PMM Phase I clinical study were all under the care of the Royal Marsden Hospital. […]
# [3] = design: method as in Ames et al. (1979); details: rabbits, independent of the route (i.v. and oral); ref Ames et al. (1979); cited from earlier work
# [4] = design: method as in Cumber & Ross, 1977; details: compared with N2,N4,N6-trimethyl-N2,N4,N6-trimethylolmelamine; ref Cumber & Ross, 1977; cited from earlier work
# [5] = system: patients; details: cited from earlier work
# [6] = system: patients with malignant tumours; assay: Phase I clinical evaluation of toxicity of PMM given as intravenous infusion; assay type: in vivo, man; design: key to Nausea/vomiting Intensity: Mild: Vomiting once or twice during the infusion and requiring no anti- emetics was classified as mild; Moderate: vomiting that persisted up to 6 h after infusion and requiring a maximum administration of two courses of anti- emetics was regarded as moderate; Severe: Vomiting was classified as severe if it continued up to 24 h after PMM infusion and/or could only be controlled partially by repeated doses of anti-emetics; details: for Nausea/vomiting Frequency: per courses
# Text: (§1) Br. J. Cancer (1983), 47, 027-033 Pentamethylmelamine (PMM): Phase I clinical and pharmacokinetic studies J.R.F. Muindi*, D.R. Newellt, I.E. Smith* & K.R. Harrapt *Division of Medicine, Institute of Cancer Research and Royal Marsden Hospital, and the tDepartment of Biochemical Pharmacology, Institute of Cancer Research, Sutton, Surrey. […] PMM has been administered as an intravenous infusion to 17 patients in a Phase I clinical trial. […] In the present study the results of the Phase I clinical evaluation of PMM at the Royal Marsden Hospital are reported. In addition to the clinical assessment of patients, pharmacokinetic studies were also performed. […] (Broggini et al., 1981; Morimoto et al., 1980; Ames et al., 1979; Casper et al., 1981; Idhe et al., 1981; Benvenuto et al., 1981; Rutty et al., 1982). […] The mechanism of action of N-methylolmelamines is, however, still uncertain. To ascertain the rate and extent of PMM metabolism in man, plasma levels of the parent drug and the first two products of oxidative N- demethylation i.e. N2,N2,N4,N6-tetramethyl- melamine (TMM) and N2,N4,N6-trimethylmelamine (TRIMM) were measured (Figure 2). […] Materials and methods Patient selection The patients entered in the PMM Phase I clinical study were all under the care of the Royal Marsden Hospital. […] Additional criteria required for eligibility to enter into the study included: WBC and platelet count > 3000 uM I-' and > 100,000 pM 11 respectively; blood urea and serum creatinine < 8 mM ,M I1- and < 106 pM 1 respectively. None of the patients had received cancer chemotherapy or radiotherapy during the 3-week period preceding their entry into the study. […] The treatment protocol was approved by the Ethical Committee of the Royal Marsden Hospital and informed consent was obtained from all patients prior to entry into the study. […] It was supplied by Prof. W.C.J. Ross of the Chester Beatty Research Institute, London, as a white crystalline powder. PMM (2mg ml-') was infused intravenously as a 2% ethanol 5% dextrose solution after micropore (0.22 pm) filtration. All formulated PMM infusions were used within 24h of preparation, as a sterility precaution. PMM was initially given at a dose of […] and the dose escalated to 1300mgm-2 according to a modified Fibonacci scheme (Table II). At higher PMM doses, requiring large infusion volumes, the infusion time was extended from 1 to 4 h. No dose escalation was TRIMM CH3 Nc"N H 11 H Ii N N H CH3 HCHO 1. carried out in the same patient.
# [7] = design: method as in Rutty et al., 1982; details: mice; ref Rutty et al., 1982; cited from earlier work
# [8] = design: method as in Rutty et al., 1982; details: rats; ref Rutty et al., 1982; cited from earlier work
# [9] = Pharmacokinetic studies: plasma levels of PMM, TMM and TRIMM by gas liquid chromatography; assay type: in vivo, man; details: for half-life: intravenous
# Text: as §1
# [10] = design: method as in Rutty et al., 1982; details: patients of this trial, not detectable; ref Rutty et al., 1982; cited from earlier work
compound,measurement,setting,value
"CNc1nc(N(C)C)nc(N(C)C)n1 [PMM, Pentamethylmelamine]",Activity relative to HMM,[1],equivalent activity
same,Minor response,"[2]; 500 mg m-2, patient with squamous cell carcinoma of bronchus",One minor response
same,Complete or partial responses,"[2]; 17 patients, 100-1300 mg m-2",No complete or partial responses
same,Urinary excretion of drug-derived material,[3],75-85 % dose admin.
same,Chemical stability,[4],greater chemical stability
same,Haematological toxicity,"[5]; 1.2 g/m2/day x 10, ref Goldberg et al. (1980)",reproducibly induced haematological toxicity
same,Partial response among all patients who have received PMM,"[5]; of 173 patients, ref Casper et al., 1981",1
same,Minor responses among all patients who have received PMM,"[5]; of 173 patients, ref Van Echo et al., 1980, Ajani et al., 1982 and the present study",7
same,Nausea/vomiting Intensity,[6]; 100 mg m-2 i.v. infusion,Mild
same,Nausea/vomiting Frequency,"[6]; 100 mg m-2 i.v. infusion, 3 patients",0/7
same,Nausea/vomiting Frequency,"[6]; 200 mg m-2 i.v. infusion, 3 patients",1/7
same,Nausea/vomiting Intensity,[6]; 300 mg m-2 i.v. infusion,Moderate (vomiting that persisted up to 6 h after infusion and requiring a maximum administration of two courses of anti- emetics was regarded as moderate)
same,Nausea/vomiting Frequency,"[6]; 300 mg m-2 i.v. infusion, 3 patients",2/5
same,Patients with nausea and vomiting,[6]; 500 mg m-2 and above,all patients
same,Nausea/vomiting Frequency,"[6]; 500 mg m-2 i.v. infusion, 3 patients",8/8
same,Nausea/vomiting Intensity,[6]; 800 mg m-2 i.v. infusion,Severe (Vomiting was classified as severe if it continued up to 24 h after PMM infusion and/or could only be controlled partially by repeated doses of anti-emetics)
same,Nausea/vomiting Frequency,"[6]; 800 mg m-2 i.v. infusion, 3 patients",7/7
same,Duration of nausea and vomiting,[6]; 1300 mg m-2 i.v. infusion,> 24 h
same,Nausea/vomiting Frequency,"[6]; 1300 mg m-2 i.v. infusion, 2 patients",4/4
same,Severity of nausea and vomiting,"[6]; 1300 mg m-2 i.v. infusion, poorly controlled by anti-emetics",severe
same,Haematological toxicity,[6]; 100-1300 mg m-2 i.v. infusion,not observed
same,Hepatic toxicity,[6]; 100-1300 mg m-2 i.v. infusion,not observed
same,Renal toxicity,[6]; 100-1300 mg m-2 i.v. infusion,not observed
same,Acute neurological side effects,"[6]; doses below 500 mg m-2, not assessable at higher doses because of anti-emetics",no neurological side effects were observed
same,Dose-limiting toxicities,"[6]; i.v. infusion 100-1300 mg m-2, 3 weekly",nausea and vomiting
same,Pruritic erythematous maculopapular skin rashes,"[6]; one patient at 200 mg m-2 (2nd course), one at 1300 mg m-2, other medications possibly responsible",Two patients
same,PMM metabolites capable of releasing formaldehyde in plasma,[7],563 to 773 µM
same,PMM metabolites capable of releasing formaldehyde in plasma,[8],211 yM
same,Correlation (r) of plasma levels at the end of the infusion with dose,"[9]; 1 h infusion, 100-300 mg m-2, P = 0.005",0.94
same,half-life,"[9]; human, plasma, 100 mg m-2, patient six, 100 mg m-2, hepatic function normal, value + s.e., read-out: PMM plasma t1/2 (overall elimination phase)",0.902 h
same,half-life,"[9]; human, plasma, 200 mg m-2, patient five, 200 mg m-2, hepatic function abnormal, value + s.e., read-out: PMM plasma t1/2 (overall elimination phase)",2.25 h
same,half-life,"[9]; human, plasma, 300 mg m-2, patient eight, 300 mg m-2, hepatic function abnormal, value + s.e., read-out: PMM plasma t1/2 (overall elimination phase)",2.54 h
same,half-life,"[9]; human, plasma, 300 mg m-2, patient one, 300 mg m-2, hepatic function normal, value + s.e., read-out: PMM plasma t1/2 (overall elimination phase)",1.21 h
same,half-life,"[9]; human, plasma, 500 mg m-2, patient seven, 500 mg m-2, hepatic function normal, value + s.e., read-out: PMM plasma t1/2 (overall elimination phase)",1.14 h
same,half-life,"[9]; human, plasma, 500 mg m-2, patient three, 500 mg m-2, hepatic function abnormal, value + s.e., read-out: PMM plasma t1/2 (overall elimination phase)",2.12 h
same,half-life,"[9]; human, plasma, patients with hepatic disease and abnormal liver function tests, mean + SEM, n = 3, P = 0.002 vs normal, read-out: PMM t1/2, group mean",2.3 h
same,half-life,"[9]; human, plasma, patients with normal liver function, mean + SEM, n = 3, read-out: PMM t1/2, group mean",1.08 h
same,AUC(0-t),"[9]; human, plasma, iv, i.v. PMM 100-300 mg m-2, n = 6, mean + SEM, read-out: PMM AUC 0-12h (converted)",72.3 µM·h
same,Area under the plasma conc. v. time curve,"[9]; patient eight, PMM dose 300 mg m-2 i.v., hepatic function abnormal",6019 IM x min
same,Area under the plasma conc. v. time curve,"[9]; patient five, PMM dose 200 mg m-2 i.v., hepatic function abnormal",7175 IM x min
same,PMM pharmacokinetics in the disposition phase (order),"[9]; patient four, 200 mg m-2, hepatic function normal",not first-order
same,Area under the plasma conc. v. time curve,"[9]; patient four, PMM dose 200 mg m-2 i.v., hepatic function normal",1694 IM x min
same,Area under the plasma conc. v. time curve,"[9]; patient one, PMM dose 300 mg m-2 i.v., hepatic function normal",6232 IM x min
same,Area under the plasma conc. v. time curve,"[9]; patient seven, PMM dose 500 mg m-2 i.v., hepatic function normal",3940 IM x min
same,Area under the plasma conc. v. time curve,"[9]; patient six, PMM dose 100 mg m-2 i.v., hepatic function normal",734 IM x min
same,Area under the plasma conc. v. time curve,"[9]; patient three, PMM dose 500 mg m-2 i.v., hepatic function abnormal",7179 IM x min
same,PMM pharmacokinetics in the disposition phase (order),"[9]; patient two, 100 mg m-2, hepatic function normal",not first-order
same,Area under the plasma conc. v. time curve,"[9]; patient two, PMM dose 100 mg m-2 i.v., hepatic function normal",317 IM x min
same,PMM metabolites capable of releasing formaldehyde in plasma,[10],< 50 µM
